Measurements from PMC7617459, “Comparative Evaluation and Profiling of Chemical Tools for the Nuclear Hormone Receptor Family 2” (ACS pharmacology & translational science, 2025).
Like-named read-outs stand apart in the source and are kept apart here. Each block holds one compound with its values, some of them ahead of it.

Experiments:
Gal4-VP16 = test system: Gal4-VP16; design: method as in PMID 16834531; conditions: cited from earlier work
PNR [1] = conditions: reporter gene assay; cited from earlier work
nuclear receptors = assay: Selectivity profiling in Gal4-hybrid reporter gene assay panel; assay type: cell-based, human; conditions: at active concentration
Method: Compounds were tested at concentrations around EC90 according to the literature or at the highest nontoxic concentration (from the multiplex toxicity assay). […] (b) Selectivity profiling of NR2 modulators in a representative panel of nuclear receptors outside the NR2 family. […] Effects <5% of the respective reference ligands were considered as not relevant and omitted. Only effects are shown that are statistically significant against VP16 ctrl (Figure S3); n = 3.

rhodopsin expression = test system: rhodopsin expression; design: method as in PMID 29148976, PMID 27893103; conditions: cited from earlier work; for rhodopsin expression: murine retinal cells, immunofluorescence and qRT-PCR
PNR (NR2E3) = molecular target: T1, PNR (NR2E3) (Homo sapiens, UniProt Q9Y5X4); assay: Gal4-hybrid reporter gene assay PNR; assay type: cell-based; conditions: selected test concentration (Figure 3)
T1 construct: encoding the hinge region and the LBD of the canonical isoform of the respective human nuclear receptors; expressed in transfected cells; host or cells: HEK293T
T1 sequence (Q9Y5X4 169-410 limits assumed): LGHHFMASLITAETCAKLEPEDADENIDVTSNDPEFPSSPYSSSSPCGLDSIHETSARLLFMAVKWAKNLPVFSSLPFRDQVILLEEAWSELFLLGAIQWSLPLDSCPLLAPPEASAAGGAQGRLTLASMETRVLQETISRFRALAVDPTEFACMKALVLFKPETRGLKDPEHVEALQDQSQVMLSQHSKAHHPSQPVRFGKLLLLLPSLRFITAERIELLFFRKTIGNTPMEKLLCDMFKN
Method: Gal4-hybrid reporter gene assays were performed as described previously using the plasmids pFA-CMV-hTHRα-LBD,[170] pFA-CMV-hRARα-LBD,[171] pFA-CMV-hPPARα-LBD,[172] pFA-CMV-hPPARγ-LBD,[172] pFA-CMV-hPPARδ-LBD,[172] pFA-CMV-revERBα-LBD,[158] pFA-CMV-hRORα-LBD,[173] pFA-CMV-hLXRα-LBD,[118] pFA-CMV-hFXR-LBD,[174] pFA-CMV-hVDR-LBD,[171] pFA-CMV-hCAR-LBD,[171] pFA-CMV-hHNF4α-LBD,[110] pFA-CMV-hRXRα-LBD,[175] pFA-CMV-hTR2-LBD,[102] pFA-CMV-hTR4-LBD,[102] pFA-CMV-hTLX-LBD,[102] pFA-CMV-hNR2E3-LBD,[102] pFA-CMV-hNur77-LBD,[176] pFA-CMV-hSF1-LBD[158] encoding the hinge region and the LBD of the canonical isoform of the respective human nuclear receptors. pFR-Luc (Stratagene, La Jolla, CA, USA) was used as a reporter plasmid, and pRL-SV40 (Promega, Madison, WI, USA) was used for normalization of transfection efficiency and cell growth. HEK293T cells (German Collection of Microorganisms and Cell Culture GmbH, DSMZ) were cultured in Dulbecco’s modified Eagle’s medium (DMEM), high glucose supplemented with 10% fetal calf serum (FCS), sodium pyruvate (1 mM), penicillin (100 U/mL), and streptomycin (100 μg/mL) at 37 °C and 5% CO2 and seeded in 96-well plates (3 × 10^4 cells/well). The medium was changed to Opti-MEM without supplements, and the cells were transiently transfected with one pFA-CMV-hNR-LBD clone, pFR-Luc, and pRL-SV40 using Lipofectamine LTX reagent (Invitrogen, Thermo Fisher Scientific) according to the manufacturer’s instructions. Five hours after transfection, cells were incubated with the test compounds in Opti-MEM supplemented with penicillin (100 U/mL), streptomycin (100 μg/mL), and 0.1% DMSO. Each sample was set up in duplicates and tested in at least three independent experiments. After 16 h incubation, luciferase activity was measured using the Dual-Glo Luciferase Assay System (Promega) according to the manufacturer’s protocol on a Tecan Spark luminometer (Tecan Deutschland GmbH, Crailsheim, Germany). Firefly luminescence was divided by Renilla luminescence and multiplied by 1000 resulting in relative light units (RLUs) to normalize for transfection efficiency and cell growth. Fold activation was obtained by dividing the mean RLU of the test compound by the mean^a RLU of the untreated control, and relative activation was calculated by dividing the fold activation of a test sample by the fold activation of the respective reference agonist. Antagonistic effects were evaluated by coincubation of the test compound with the respective reference ligand.

ATF6 = ATF6 activity assay; assay type: cell-based; conditions: tunicamycin treated Hela ATF6 reporter cells
Source text: Next, we evaluated the potential impact of the NR2 modulator set on endoplasmic reticulum (ER) stress in an ATF6 activity assay (Fig. 4b). The activating transcription factor 6 (ATF6) participates in the unfolded protein response and is activated under ER stress.[164] Tunicamycin-induced ATF6 activity was not affected by RXR and TLX modulators but was reduced by the inverse PNR agonists 22 and 23.
Hela cells containing a Renilla luciferase reporter gene for ATF6 activity (ATF6 Leeporter™ Luciferase Reporter-HeLa Cell Line, Abeomics Inc.; #14-138ACL) were cultured in DMEM supplemented with 10% heat-inactivated FCS, penicillin (100 U/mL), streptomycin (100 μg/mL) and puromycin (3 µg/mL) at 37°C and 5% (v/v) CO2 and seeded in 96-well plates (1 × 10^5 per well). After 24 h, the cells were incubated with the test compounds solubilized with 0.1% DMSO in the same medium without puromycin. After 4 h of incubation, tunicamycin (100 ng/mL) was added. After another 18 h of incubation, cells were assayed for renilla luminescence using DualGlo reagent (Promega) on a Tecan SPARK Cyto (Tecan). Test samples were normalized to the 0.1% DMSO control.

COS-7 cells = assay: Multiplex toxicity assay; assay type: cell-based; conditions: 24 h, at active concentration
Method: COS-7 cells (DSMZ #ACC 60) were cultured at 37°C and 5% CO2 in DMEM high glucose medium supplemented with sodium pyruvate (1 mM), penicillin (100 U/mL), streptomycin (100 µg/mL), and 10% fetal calf serum (FCS). After aspirating the wells, the cells were seeded at 1x10^5 cells per well in complete culture medium. […] Each sample was prepared in at least 4 biologically independent replicates. After incubation for 24 h, the wells were aspirated and incubated for 30 min with stimulation medium containing 1 µM NucView® 405 fluorogenic caspase-3 substrate (#10405, Biotium, Fremont, USA) and Live-or-Dye Nuc-Fix Red (0.05x, Biotium, Inc., Fremont, CA, 1691 USA) to detect apoptosis and necrosis, respectively. After incubation, a total of 6 fluorescence images per well at 10x magnification were taken to detect NucView®-positive (Ex: 381–400 nm, Em: 414–450 nm) and Live-or-Dye-positive cells (Ex: 543−566 nm, Em: 580−611 nm) using on a Tecan Spark Cyto (Tecan Group AG). Reference readings for background correction and detection of auto-fluorescence were taken at 414–450 nm prior to staining. Thereafter, wells were aspirated, the cells were incubated for 3 h with 90 µL culture medium (0.2% FCS) and 10 µL Cell Counting Kit-8 solution (CCK-8, MedChem Express #HY-K0301), and absorbance was measured at 1, 2, and 3h of incubation at 450 nm on a Tecan Spark Cyto to assess metabolic activity of the cells. Before drug administration, after the first medium exchange, 24 h after drug administration, and after fluorescence imaging cell confluence was assessed using the Tecan Spark Cyto, to account for changes in cell confluence due to drug administration and cell handling. The number of apoptotic cells, metabolic activity, and changes in cell confluence in response to drug treatment were all normalized to the vehicle control of each biological replicate individually.

PNR [2] = molecular target: PNR; design: method as in PMID 29148976; conditions: ITC, cited from earlier work
[3] = cited from earlier work
[4] = design: method as in PMID 31298602, PMID 30702885; conditions: cited from earlier work
[5] = test system: HNF4α and a set of its target genes; design: method as in PMID 22840769; conditions: T6PNE cells; cited from earlier work
HNF4α [6] = molecular target: HNF4α; design: method as in PMID 22840769; conditions: cited from earlier work
human insulin promoter = conditions: insulin promoter assay, cited from earlier work
HNF4α [7] = molecular target: T2, HNF4α (Homo sapiens, UniProt P41235); assay: Gal4-hybrid reporter gene assay HNF4α; conditions: 3 µM, HEK293T
T2 sequence (P41235 147-377 limits assumed): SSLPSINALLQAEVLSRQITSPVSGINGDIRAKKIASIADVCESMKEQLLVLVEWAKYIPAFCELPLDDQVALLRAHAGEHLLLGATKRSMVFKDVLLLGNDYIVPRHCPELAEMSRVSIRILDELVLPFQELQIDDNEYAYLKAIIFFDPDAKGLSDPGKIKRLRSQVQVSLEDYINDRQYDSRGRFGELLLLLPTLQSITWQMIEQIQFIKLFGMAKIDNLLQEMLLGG

TLX expression = conditions: cited from earlier work
TLX [8] = molecular target: T3, TLX (Homo sapiens, UniProt Q9Y466); assay: Gal4-hybrid reporter gene assay TLX; assay type: cell-based; conditions: selected test concentration (Figure 3)
T3 construct: encoding the hinge region and the LBD of the canonical isoform of the respective human nuclear receptors; expressed in transfected cells; host or cells: HEK293T
T3 sequence (Q9Y466 155-383 limits assumed): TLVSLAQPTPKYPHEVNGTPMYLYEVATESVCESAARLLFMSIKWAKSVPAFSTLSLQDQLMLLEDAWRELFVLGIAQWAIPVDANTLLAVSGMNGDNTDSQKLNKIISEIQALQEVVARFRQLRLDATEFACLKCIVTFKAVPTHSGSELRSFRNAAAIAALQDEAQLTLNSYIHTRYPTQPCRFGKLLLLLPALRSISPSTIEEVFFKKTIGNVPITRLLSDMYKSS

TLX [9] = conditions: DSF assays; cited from earlier work
[10] = microsomes; cited from earlier work
TLX-regulated genes = conditions: human glioblastoma cells (T98G), qRT-PCR; cited from earlier work
TLX [11] = conditions: reporter gene assay; read-out: EC50; cited from earlier work
HEK293T cells = conditions: cited from earlier work
[12] = test system: HNF4α, RXRα, PPARα, LXRα, GR, PR, ER, RAR, RORγ, AR, and COUP-TF1; design: method as in PMID 32494682; conditions: cited from earlier work
[13] = test system: COUP-TF2 target genes FOXM1 and CDK1; design: method as in PMID 32494682; conditions: prostate cancer cells; cited from earlier work
COUP-TF2 = test system: COUP-TF2; design: method as in PMID 32494682; conditions: reporter gene assay; cited from earlier work
NR2E3 = test system: NR2E3; design: method as in PMID 16879962; conditions: reporter gene assay, cited from earlier work

SMILES: Cc1cc(C)cc(NC(=O)CCc2nc3sc4c(c3c(=O)[nH]2)CCCC4)c1 [compound 22]
- activity in control experiments using Gal4-VP16 (Gal4-VP16): inactive
- IC50 (PNR [1]): 250 nM
- selectivity over other nuclear receptors (nuclear receptors): Favorable selectivity profiles
- rhodopsin expression (rhodopsin expression): dose-dependent reduction
- PNR modulation (PNR (NR2E3)): confirmed albeit with rather low efficacy
- tunicamycin-induced ATF6 activity (ATF6): reduced
- cytotoxicity (COS-7 cells): lack of cytotoxicity

SMILES: COc1cc2nc(CN3CC=C(c4ccccc4)CC3)nc(O)c2cc1OC [compound 23]
- activity in control experiments using Gal4-VP16 (Gal4-VP16): inactive
- Kd (PNR [2]): 67000 nM
- Kd (PNR [2]; listed as Photoregulin3 (23)): 64000 nM
- IC50 (PNR [1]): 70 nM
- selectivity over other nuclear receptors (nuclear receptors): Favorable selectivity profiles
- Rho mRNA expression (rhodopsin expression): decreased
- rhodopsin expression (rhodopsin expression): dose-dependent reduction
- PNR modulation (PNR (NR2E3)): confirmed albeit with rather low efficacy
- tunicamycin-induced ATF6 activity (ATF6): reduced
- cytotoxicity (COS-7 cells): lack of cytotoxicity

SMILES: C=C(c1ccc(C(=O)O)cc1)c1cc2c(cc1C)C(C)(C)CCC2(C)C [compound 6, bexarotene]
- adverse effects associated with clinical use [3]: elevated triglyceride and cholesterol levels, leukopenia, hypothyroidism, and an increased risk of acute pancreatitis
- lipophilicity [4]: highly lipophilic

- effects on HNF4 activity (HNF4α [7]): no effects
SMILES: Cc1nc2ccccc2n1S(=O)(=O)c1cc([N+](=O)[O-])ccc1Cl [compound 1]
- expression of HNF4α and a set of its target genes [5]: suppress the expression
- Kd (HNF4α [6]; Try/Trp fluorescence quenching assays): 12 nM
- EC50 (HNF4α [6]; direct binding, read-out: EC50 of quenching of intrinsic Tyr/Trp fluorescence of HNF4α): 11.9 nM
- IC50 (human insulin promoter): 900 nM
- IC50 (human insulin promoter; listed as BIM5078 (1)): 930 nM

- TLX modulation (TLX [8]): not observed
SMILES: Cc1cc(C(=O)N2CCN(C(c3ccccc3)c3ccccc3)CC2)nn1C [compound 15]
- TLX expression (TLX expression): not affected
- Kd (TLX [9]): 650 nM
- t1/2 against microsomal degradation [10]: < 15 min
- SIRT, SLC1a1 and p21 induction (TLX-regulated genes): trend toward SIRT and SLC1a1 but not p21 induction
- EC50 (TLX [11]): 1000 nM
- toxicity in WST-1 assay (HEK293T cells): Low toxicity

SMILES: COc1ccc(CCNc2ncnc3sccc23)cc1OC [compound 28]
- interaction with related NRs in pulldown assay [12]: no relevant interaction
- expression of COUP-TF2 target genes FOXM1 and CDK1 [13]: altered expression
- IC50 (COUP-TF2): 2800 nM

SMILES: O=C(Nc1ccc(-c2nc3ccc(NC(=O)C4CC4)cc3[nH]2)cc1)c1ccccc1Cl [compound 24]
- EC50 (NR2E3; read-out: EC50 (first value of cell)): 141 nM
- EC50 (NR2E3; read-out: EC50 (second value of cell)): 35 nM
